Assay results from patent US20230233569A1 (Revolution Medicines, Inc., priority 2020, published 2023).
Several values for one entry are separate records, joined by “and”; a condition that tells them apart may be missing. Equal entries are not always repeated. Where two headings read alike, the source gives them in different places.

Assays:
NCI-H358 (K-Ras G12C) = test: CellTiter-Glo cell viability assay, 5-day treatment; assay type: cell-based; details: Homo sapiens
Procedure: Protocol: CellTiter-Glo® Cell Viability Assay
Note—The following protocol describes a procedure for monitoring cell viability of K-Ras mutant cancer cell lines in response to a compound of the invention. Other RAS isoforms may be employed, though the number of cells to be seeded will vary based on cell line used.
Test compounds (132.5 nL) were directly dispensed into the assay plates containing cells. […] On day 5, assay plates and their contents were equilibrated to room temperature for approximately 30 minutes. […] Luminescence was measured using the PerkinElmer Enspire. Data were normalized by the following: (Sample signal/Avg. DMSO)*100. The data were fit using a four-parameter logistic fit.
Test compounds (132.5 nl) were directly dispensed into the assay plates containing cells. […] On day 5, assay plates and their contents were equilibrated to room temperature for approximately 30 minutes. […] Luminescence was measured using the PerkinElmer Enspire. Data were normalized by the following: (Sample signal/Avg. DMSO)*100. The data were fit using a four-parameter logistic fit.

KRAS G12C = KRAS G12C (Homo sapiens, UniProt P01116+P62937, G12C); test: Disruption of BRAF RBD interaction with Ras (FRET / MOA assay, with Cyclophilin A); assay type: biochemical
Excerpt: (§1) This protocol may also be executed substituting other Ras proteins or nucleotides.
(§2) The purpose of this biochemical assay was to measure the ability of test compounds to facilitate ternary complex formation between a nucleotide-loaded K-Ras isoform and Cyclophilin A; the resulting ternary complex disrupts binding to a BRAF^RBD construct, inhibiting K-Ras signaling through a RAF effector. Data is reported as IC50 values.
(§3) Compound was present in plate wells as a 10-point 3-fold dilution series starting at a final concentration of 30 μM. After incubation at 25° C. for 3 hours, a mixture of Anti-His Eu-W1024 and anti-GST allophycocyanin was then added to assay sample wells at final concentrations of 10 nM and 50 nM, respectively, and the reaction incubated for an additional 1.5 hours. […] Compounds that facilitate disruption of a K-Ras:RAF complex were identified as those eliciting a decrease in the TR-FRET ratio relative to DMSO control wells.
(§4) The purpose of this biochemical assay was to measure the ability of test compounds to facilitate ternary complex formation between a nucleotide-loaded K-Ras isoform and Cyclophilin A; the resulting ternary complex disrupts binding to a BRAF^RBDD construct, inhibiting K-Ras signaling through a RAF effector. Data is reported as IC50 values.

KRAS G12D = KRAS G12D (Homo sapiens, UniProt P01116+P62937, G12D); test: as above; assay type: biochemical
Excerpt: as §1, §2, §3, §4

KRAS G12S = KRAS G12S (Homo sapiens, UniProt P01116+P62937, G12S); test: as above; assay type: biochemical
Excerpt: as §1, §2, §3, §4

KRAS G12V = KRAS G12V (Homo sapiens, UniProt P01116+P62937, G12V); test: as above; assay type: biochemical
Excerpt: as §1, §2, §3, §4

KRAS G13C = KRAS G13C (Homo sapiens, UniProt P01116+P62937, G13C); test: as above; assay type: biochemical
Excerpt: as §1, §2, §3, §4

KRAS G13D = KRAS G13D (Homo sapiens, UniProt P01116+P62937, G13D); test: as above; assay type: biochemical
Excerpt: as §1, §2, §3, §4

KRAS WT = KRAS WT (Homo sapiens, UniProt P01116+P62937); test: as above; assay type: biochemical
Excerpt: as §1, §2, §3, §4

NRAS G12C = NRAS G12C (Homo sapiens, UniProt P01111+P62937, G12C); test: as above; assay type: biochemical; details: NRAS G12C; read-out: NRAS G12C FRET data IC50
Excerpt: as §1, §2, §3, §4

[1] = NCI-H358, H358, K-Ras G12C, read-out: Additional H358 Cell Viability assay data (K-Ras G12C, IC50)
[2] = KRAS G12C, read-out: KRAS G12C FRET data IC50
[3] = read-out: KRAS G12D FRET data, IC50
[4] = read-out: KRAS G12S FRET data, IC50
[5] = KRAS G12V, read-out: KRAS G12V FRET data IC50
[6] = KRAS G13C, read-out: KRAS G13C FRET data IC50
[7] = KRAS G13D, read-out: KRAS G13D FRET data IC50
[8] = KRAS WT, read-out: KRAS WT FRET data IC50
[9] = NCI-H358, 120 h, 5-day treatment, read-out: H358 Cell Viability assay data (K-Ras G12C, IC50)
[10] = read-out: KRAS G12C FRET data, IC50
[11] = read-out: KRAS G13C FRET data, IC50

Chain of KRAS WT (P01116 1-169 isoform P01116-2 limits assumed): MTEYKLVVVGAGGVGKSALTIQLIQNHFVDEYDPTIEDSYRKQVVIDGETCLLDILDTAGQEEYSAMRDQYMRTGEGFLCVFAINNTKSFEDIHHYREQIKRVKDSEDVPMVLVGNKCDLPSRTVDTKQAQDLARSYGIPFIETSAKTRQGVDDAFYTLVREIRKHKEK
Chain of KRAS WT (P62937 whole entry): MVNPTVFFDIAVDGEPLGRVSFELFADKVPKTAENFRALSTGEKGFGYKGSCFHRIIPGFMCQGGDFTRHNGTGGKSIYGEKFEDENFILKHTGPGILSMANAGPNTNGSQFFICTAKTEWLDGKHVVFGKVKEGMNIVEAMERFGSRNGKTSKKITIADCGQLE
Chain of KRAS G12D (P01116 1-169 isoform P01116-2 G12D limits assumed): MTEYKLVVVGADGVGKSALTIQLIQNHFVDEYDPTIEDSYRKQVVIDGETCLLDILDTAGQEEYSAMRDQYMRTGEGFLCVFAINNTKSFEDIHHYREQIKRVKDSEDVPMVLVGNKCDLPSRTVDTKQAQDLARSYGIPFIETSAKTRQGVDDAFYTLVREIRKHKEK
Chain of KRAS G12D (P62937 whole entry): as the sequence (P62937 whole entry) above
Chain of KRAS G12C (P01116 1-169 isoform P01116-2 G12C): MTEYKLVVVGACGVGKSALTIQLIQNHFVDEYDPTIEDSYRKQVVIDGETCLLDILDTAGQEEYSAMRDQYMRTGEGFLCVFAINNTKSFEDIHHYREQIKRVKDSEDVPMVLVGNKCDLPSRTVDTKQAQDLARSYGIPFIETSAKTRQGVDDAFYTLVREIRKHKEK
Chain of KRAS G12C (P62937 whole entry): as the sequence (P62937 whole entry) above
Chain of KRAS G12V (P01116 1-169 isoform P01116-2 G12V limits assumed): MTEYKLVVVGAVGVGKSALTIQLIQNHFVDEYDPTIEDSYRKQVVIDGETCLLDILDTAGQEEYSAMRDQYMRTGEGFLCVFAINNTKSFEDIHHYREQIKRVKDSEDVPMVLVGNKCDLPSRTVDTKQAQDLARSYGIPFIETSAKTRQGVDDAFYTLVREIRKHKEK
Chain of KRAS G12V (P62937 whole entry): as the sequence (P62937 whole entry) above
Chain of KRAS G13C (P01116 1-169 isoform P01116-2 G13C): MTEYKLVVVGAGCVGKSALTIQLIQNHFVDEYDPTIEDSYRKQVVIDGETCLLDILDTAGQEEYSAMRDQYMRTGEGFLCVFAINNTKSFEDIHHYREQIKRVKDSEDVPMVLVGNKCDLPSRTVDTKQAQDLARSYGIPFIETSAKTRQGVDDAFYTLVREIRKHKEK
Chain of KRAS G13C (P62937 whole entry): as the sequence (P62937 whole entry) above
Chain of KRAS G12S (P01116 1-169 isoform P01116-2 G12S limits assumed): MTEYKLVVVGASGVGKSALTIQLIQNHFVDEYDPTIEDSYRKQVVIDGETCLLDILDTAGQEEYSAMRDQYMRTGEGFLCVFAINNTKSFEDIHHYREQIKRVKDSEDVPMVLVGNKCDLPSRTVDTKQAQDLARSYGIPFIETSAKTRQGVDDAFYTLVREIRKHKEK
Chain of KRAS G12S (P62937 whole entry): as the sequence (P62937 whole entry) above
Chain of NRAS G12C (P01111 whole entry G12C): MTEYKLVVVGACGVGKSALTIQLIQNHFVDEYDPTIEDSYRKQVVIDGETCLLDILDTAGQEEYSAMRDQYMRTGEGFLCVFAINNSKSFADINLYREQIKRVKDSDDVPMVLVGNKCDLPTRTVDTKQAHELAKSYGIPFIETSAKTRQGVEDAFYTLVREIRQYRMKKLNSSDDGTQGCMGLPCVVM
Chain of NRAS G12C (P62937 whole entry): as the sequence (P62937 whole entry) above
Chain of KRAS G13D (P01116 1-169 isoform P01116-2 G13D limits assumed): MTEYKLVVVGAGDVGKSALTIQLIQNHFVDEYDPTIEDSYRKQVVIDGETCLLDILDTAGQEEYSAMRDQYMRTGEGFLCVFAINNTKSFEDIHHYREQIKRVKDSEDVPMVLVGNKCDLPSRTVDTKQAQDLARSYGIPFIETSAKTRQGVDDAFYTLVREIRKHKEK
Chain of KRAS G13D (P62937 whole entry): as the sequence (P62937 whole entry) above

| Compound | IC50 (KRAS G12D; [3]) | IC50 (KRAS G12S; [4]) | IC50 (KRAS G12V; [5]) | IC50 (KRAS G13D; [7]) | IC50 (KRAS WT; [8]) | IC50 (NRAS G12C) | IC50 (NCI-H358 (K-Ras G12C); [9]) | IC50 (KRAS G12C; [10]) | IC50 (KRAS G13C; [11]) | other results |
| --- | --- | --- | --- | --- | --- | --- | --- | --- | --- | --- |
| C=CC(=O)N1CC[C@H](C(=O)N(C)[C@H](C(=O)N[C@H]2C[C@H]3CN(CCCO3)c3ccc4c(c3)c(c(-c3cccnc3[C@H](C)OC)n4CC)CC(C)(C)COC(=O)[C@@H]3CCCN(N3)C2=O)C(C)C)C1 (racemic) [Example A405] | > 10 µM | > 10 µM | > 10 µM | > 10 µM | > 10 µM | > 10 µM | – | – | – | IC50 (NCI-H358 (K-Ras G12C); [1]): > 1 µM; IC50 (KRAS G12C; [2]): 1 to 10 µM; IC50 (KRAS G13C; [6]): > 10 µM |
| CCn1c(-c2cnccc2COC)c2c3cc(ccc31)-c1cc(O)cc(c1)C[C@H](NC(=O)[C@H](C(C)C)N(C)C(=O)[C@H]1CCN(C(=O)C3COC3)C1)C(=O)N1CCC[C@H](N1)C(=O)OCC(C)(C)C2 [Example A9] | 1 to 10 µM | 0.1 to 1 µM | 0.1 to 1 µM | 0.1 to 1 µM | 0.1 to 1 µM | 0.1 to 1 µM | 1 to 10 µM | 0.01 to 0.1 µM | 0.1 to 1 µM | – |
| CCn1c(-c2cnccc2COC)c2c3cc(ccc31)-c1cc(O)cc(c1)C[C@H](NC(=O)[C@H](C(C)C)N(C)C(=O)[C@H]1CCNC1)C(=O)N1CCC[C@H](N1)C(=O)OCC(C)(C)C2 [Example A10] | 0.1 to 1 µM | 0.01 to 0.1 µM | 0.1 to 1 µM | 0.01 to 0.1 µM | 0.01 to 0.1 µM | 0.01 to 0.1 µM | 1 to 10 µM | 0.01 to 0.1 µM | 0.01 to 0.1 µM | – |
| CCn1c(-c2cccnc2COC)c2c3cc(ccc31)-c1cc(O)cc(c1)C[C@H](NC(=O)[C@H](C(C)C)N(C)C(=O)[C@H]1CCN(C(=O)CN)C1)C(=O)N1CCC[C@H](N1)C(=O)OCC(C)(C)C2 [Example A12] | 0.1 to 1 µM and 1 to 10 µM | 0.1 to 1 µM and 1 to 10 µM | 0.1 to 1 µM and 1 to 10 µM | 0.1 to 1 µM and 1 to 10 µM | 0.1 to 1 µM and 1 to 10 µM | 1 to 10 µM | – | 0.1 to 1 µM and 0.01 to 0.1 µM | 0.1 to 1 µM and 1 to 10 µM | IC50 (NCI-H358 (K-Ras G12C); NCI-H358, 120 h, 5-day treatment, read-out: H358 Cell Viability IC50): 4.29 µM; IC50 (KRAS G12C; read-out: FRET G12C IC50): 0.068 µM; IC50 (KRAS G12D; read-out: FRET G12D IC50): 0.154 µM; IC50 (KRAS G12V; read-out: FRET G12V IC50): 0.329 µM; IC50 (KRAS G13C; read-out: FRET G13C IC50): 0.148 µM; IC50 (KRAS G13D; read-out: FRET G13D IC50): 0.219 µM |
| CCn1c(-c2cccnc2COC)c2c3cc(ccc31)-c1cc(O)cc(c1)C[C@H](NC(=O)[C@H](C(C)C)N(C)C(=O)[C@H]1CCN(C(C)=O)C1)C(=O)N1CCC[C@H](N1)C(=O)OCC(C)(C)C2 [Example A22] | 1 to 10 µM | 0.1 to 1 µM | 0.1 to 1 µM | 1 to 10 µM | 0.1 to 1 µM | – | 1 to 10 µM | 0.1 to 1 µM | 0.1 to 1 µM | – |
| CCn1c(-c2cnccc2COC)c2c3cc(ccc31)-c1cc(O)cc(c1)C[C@H](NC(=O)[C@H](C(C)C)N(C)C(=O)[C@@H]1CCN(C[C@@H](C)O)C1)C(=O)N1CCC[C@H](N1)C(=O)OCC(C)(C)C2 [Example A31] | – | – | – | – | – | 0.1 to 1 µM | > 10 µM | – | – | – |
| CCn1c(-c2cnccc2COC)c2c3cc(ccc31)-c1cc(O)cc(c1)C[C@H](NC(=O)[C@H](C(C)C)N(C)C(=O)[C@H]1CCN(C(C)C)C1)C(=O)N1CCC[C@H](N1)C(=O)OCC(C)(C)C2 [Example A41] | 0.1 to 1 µM | 0.1 to 1 µM | 1 to 10 µM | – | 0.1 to 1 µM | – | 1 to 10 µM | 0.1 to 1 µM | 0.01 to 0.1 µM | – |
| CCn1c(-c2cccnc2COC)c2c3cc(ccc31)-c1cc(O)cc(c1)C[C@H](NC(=O)[C@H](C(C)C)N(C)C(=O)[C@H](N)CCCNC(=N)N)C(=O)N1CCC[C@H](N1)C(=O)OCC(C)(C)C2 [Example A48] | 0.1 to 1 µM | 0.1 to 1 µM | 1 to 10 µM | – | 0.1 to 1 µM | – | > 10 µM | 0.1 to 1 µM | 0.1 to 1 µM | – |
| CCn1c(-c2ccccc2CCOC)c2c3cc(ccc31)-c1cc(O)cc(c1)C[C@H](NC(=O)[C@H](C(C)C)N(C)C(=O)CCN)C(=O)N1CCC[C@H](N1)C(=O)OCC(C)(C)C2 [Example A70] | – | – | – | – | – | – | 1 to 10 µM | – | – | IC50 (KRAS G12C; KRAS G12C FRET data, IC50): 1 to 10 µM; IC50 (KRAS G12D; KRAS G12D FRET data, IC50): 1 to 10 µM; IC50 (KRAS G12S; KRAS G12S FRET data, IC50): 1 to 10 µM; IC50 (KRAS G12V; KRAS G12V FRET data IC50, KRAS G12V): > 10 µM; IC50 (KRAS G13C; KRAS G13C FRET data, IC50): 1 to 10 µM; IC50 (KRAS G13D; KRAS G13D FRET data IC50, KRAS G13D): 1 to 10 µM; IC50 (KRAS WT; KRAS WT FRET data IC50, KRAS WT): 1 to 10 µM |
| CCn1c(-c2cccnc2[C@H](C)OC)c2c3cc(ccc31)-c1cc(O)cc(c1)C[C@H](NC(=O)[C@H](C(C)C)N(C)C(=O)[C@@H]1CNC[C@@H]1C)C(=O)N1CCC[C@H](N1)C(=O)OCC(C)(C)C2 [Example A128] | 0.01 to 0.1 µM | 0.01 to 0.1 µM | 0.1 to 1 µM | 0.01 to 0.1 µM | 0.01 to 0.1 µM | 0.01 to 0.1 µM | 1 to 10 µM | – | 0.01 to 0.1 µM | – |
| CCn1c(-c2cccnc2[C@H](C)OC)c2c3cc(ccc31)-c1cc(O)cc(c1)C[C@H](NC(=O)[C@H](C(C)C)N(C)C(=O)[C@@H]1C[C@@H]1F)C(=O)N1CCC[C@H](N1)C(=O)OCC(C)(C)C2 [Example A160] | – | – | 0.01 to 0.1 µM | – | – | – | 0.01 to 0.1 µM | – | – | – |
| C=CC(=O)N1CC(OC[C@H](C(=O)N[C@H]2Cc3cccc(c3)-c3ccc4c(c3)c(c(-c3cccnc3[C@H](C)OC)n4CC(F)(F)F)CC(C)(C)COC(=O)[C@@H]3CCCN(N3)C2=O)C(C)C)C1 [Example A453] | – | > 10 µM | > 10 µM | > 10 µM | > 10 µM | 1 to 10 µM | – | – | – | IC50 (NCI-H358 (K-Ras G12C); [1]): 0.1 to 1 µM; IC50 (KRAS G12C; [2]): 1 to 10 µM; IC50 (KRAS G13C; [6]): > 10 µM |
| C=CC(=O)N1CC[C@H](C(=O)N(C)[C@H](C(=O)N[C@H]2CCC(=O)N(C)Cc3ccc4c(c3)c(c(-c3cccnc3[C@H](C)OC)n4CC)CC(C)(C)COC(=O)[C@@H]3CCCN(N3)C2=O)C(C)C)C1 [Example A500] | – | – | – | > 10 µM | – | > 10 µM | – | – | – | IC50 (NCI-H358 (K-Ras G12C); [1]): > 1 µM; IC50 (KRAS G12C; [2]): > 10 µM |
